“Also recorded” adds a separate entry of the source. Read-outs that look alike come from different tables or passages of the source.
Experiments:
Type in all cases: in vivo
[1] = LC–MS/MS identification of serum NAPQI; settings: 600 mg/kg, CD-1 mice
Experimental: […] (NAPQI) was extracted from the serum by adding 3 volumes of ethyl-acetate to 1 volume of serum and storing them on ice for 30 min, followed by centrifugation at 3000g for 30 min. Afterward, the supernatant was transferred into mass spectrometry vials and dried under N2 gas. The serum was then washed with another 3 volumes of ethyl-acetate, and the supernatant was added back to the same mass spectrometry vial, followed by evaporation under a stream of N2 gas. The sample was re-suspended with 50 µl of 1:1 MeOH:H2O for LC–MS/MS experimentation. The mass spectrophotometer was operated in multiple reaction monitoring (MRM) mode using positive ion electrospray. NAPQI was detected by monitoring the m/z transition 150.3 → 108.1. Pure NAPQI analytical standard (10 ng/mL) obtained from Cayman Chemical (Ann Arbor, MI) was used to characterize the full fragmentation pattern of NAPQI and determine the likely fragments.

Sprague–Dawley rats = assay: CFA inflammatory pain / von Frey with electronic detection (eVF); settings: for Threshold for paw withdrawal, CFA-injected paw: young male rats, 18 g after CFA; for Threshold for paw withdrawal, CFA-injected left hind paw: young female and aged male rats (Supplementary Fig. 3), from 25 g; for ED50: Rattus norvegicus, equimolar dosing
Description: The investigators were blinded till the completion of all the experiments. To ensure objectivity, investigators were blinded for the acetic acid and tail flick experiments. In the CFA/von Frey and Hargreaves assays, one investigator did the drug pre-treatments, and another investigator at another location who was not aware of the treatments conducted the behavioral testing. Moreover, these studies used the eVF device that electronically registers the grams of force necessary to elicit paw withdrawal, eliminating bias that confounded older versions of this test in which an investigator used a series of individual von Frey microfilaments to determine paw withdrawal thresholds. Six separate experimenters were involved in the data acquisition for behavioral testing, and another separate investigator performed all the statistical analyses using GraphPad Prism Version 9.1.2. Statistical significance was determined by p < 0.05; one-way ANOVA followed by Sidak’s multiple comparisons post hoc test. Mixed-gender experiments were powered to test for gender effects, and different ages of rodents were also included for the experiments – young (2 months) and aged (20 months) to tease out whether there are any effects of age-related changes in nociceptive sensitivity under naïve, and inflammatory pre-clinical rodent pain models. For the aged rats and mice, we could only obtain male Sprague–Dawley rats and male C57BL/6 mice of 20 months old from all commercial animal vendors and from the National Institute of Aging (NIA). So, only these rodents were used for the older animal experimental cohort. Old female rats and mice were not available at the time when these experiments were conducted. For ED50 calculation, dose–response curves were calculated with regression analysis and log transformation using GraphPad Prism 9.1.2.
In this model of mechanonociception, one hind paw at a time is stimulated with an electronic von Frey (eVF) filament (noxious source) until the animal retracts the paw from the mechanical stimulus. von Frey tests were conducted in a dedicated room at the LSUHSC New Orleans Neuroscience Center of Excellence vivarium. Rats were acclimated to their environment for 2 days for 30 min/day prior to testing. To obtain eVF pressure recordings, each animal was placed in an individual plastic observation compartment on a perforated metallic grid platform, which provided access to the plantar surface of the hind paws. After acclimation to the environment for 30 min, mechanical hypersensitivity was assessed by stimulating the mid-plantar area of each hind paw with a rigid tip von Frey filament attached to the eVF meter (Ugo Basile 38,450) until animals withdrew the paw from the filament. The withdrawal threshold was defined as the average force/pressure (g) required for the rat to withdraw the stimulated paw. A brisk withdrawal of the paw (often followed by a sustained retraction and/or licking) was considered a positive response, but paw withdrawals due to locomotion or weight shifting were not counted. The von Frey studies were conducted with an eVF device that electronically registers the grams of force necessary to elicit paw withdrawal in order to eliminate bias that confounded previous older versions of this test. Baseline withdrawal thresholds of both the right and left paws were recorded, and animals were assigned to different treatment groups so that each group had approximately equal withdrawal threshold averages in both paws. After baseline testing, treated animals received subcutaneous plantar injection (150 μl) of 50% CFA diluted and freshly mixed in sterile (0.9%) saline into the left hind paw unilaterally, while control animals received a plantar injection (150 µl) of 0.9% NaCl into their left hind paw. CFA induces inflammation, resulting in a left hind paw that is hypersensitive to mechanical stimulus, while the right hind paw serves as a within-subject baseline for each animal. […]

male CD1 mice = assay: Baker yeast-induced hyperthermia antipyresis assay; settings: 75 mg/kg per os, n = 10
Experimental: Antipyresis experiments were carried out with n = 60 CD-1 male mice weighing between 45 and 50 g. All mice were kept in a 12-h day/12-h night cycle with free access to food and water ad libitum. After habituating and acclimating the mice for a week, each mouse was briefly anesthetized for 1 min with 1% isoflurane and implanted subcutaneously a transmitter probe that records core body temperature – Implantable Programmable Temperature Transponder (IPTT-300) by Bio Medic Data Systems (BMDS), DE, USA. The mice were allowed to recover for at least one week from the surgery before any recordings were made and observed in their home cages prior to pyrogen challenge for inducing fever. Temperatures were recorded using the BMDS DAS-8027-IUS data reading system.
15% yeast, 0.1 mL/kg (MilliporeSigma, Billerica, MA, USA) was used to induce fever. All animals used in this assay were male CD1 mice, which were fasted overnight (15 h) before the start of the assay.
Mice received either yeast in 0.9% saline (sterile) (vehicle) or just 0.9% saline as an ip injection. […] All mice that didn’t show a significant change in body temperature or appeared sick post-pyrogen challenge were excluded (n = 5) from subsequent drug administrations.
All drugs and vehicle (10% DMSO: 10% labrasol :80% PEG400) were administered by oral gavage, PO administration. Each dosing volume was ~ 0.3–0.4 mL per mouse. […]

[2] = 100 mg/kg PO (cumulative dosing)
[3] = read-out: ED50 von-Frey Assay (Rats), Aged (Male)
[4] = read-out: ED50 von-Frey Assay (Rats), Young (Female)
[5] = read-out: ED50 von-Frey Assay (Rats), Young (Male)

SMILES	Formation of the hepatotoxic metabolite NAPQI (serum) [1]	Threshold for paw withdrawal, CFA-injected paw (Sprague–Dawley rats; 32 mg/kg PO) [g]	Threshold for paw withdrawal, CFA-injected left hind paw (Sprague–Dawley rats; 32 mg/kg) [g]	Threshold for paw withdrawal, CFA-injected paw (Sprague–Dawley rats; [2]) [g]	Threshold for paw withdrawal, CFA-injected left hind paw (Sprague–Dawley rats; 100 mg/kg) [g]	ED50 (Sprague–Dawley rats; [3]) [µmol/kg]	ED50 (Sprague–Dawley rats; [4]) [µmol/kg]	ED50 (Sprague–Dawley rats; [5]) [µmol/kg]	Antipyresis, yeast fever (core body temperature) (male CD1 mice)
CCN(CC)C(=O)c1ccccc1S(=O)(=O)NCC(=O)Nc1ccc(O)cc1 [SRP-001, N,N-diethyl-2-[[2-(4-hydroxyanilino)-2-oxo-ethyl]sulfamoyl]benzamide]	lack of formation of the toxic quinonimine metabolite NAPQI; also recorded: does not produce the hepatotoxic metabolite; also recorded: lack of production of NAPQI	40	32	55	40	454	121	190	subsequent reduction in core body temperature
CC(=O)Nc1ccc(O)cc1 [ApAP, acetaminophen, reference compound]	a NAPQI peak is seen; also recorded: significantly enhanced; also recorded: NAPQI peak appears	34	–	50	–	358	292	574	subsequent reduction in core body temperature

— PMC11096368, “Transcriptomic signature, bioactivity and safety of a non-hepatotoxic analgesic generating AM404 in the midbrain PAG region” (Scientific Reports, 2024)
